Key:
[1] = molecular target: T1, D1R-Rluc with β-arrestin-2-Venus (Homo sapiens, UniProt P21728); format: cell-based; details: agonist; GRK2 co-transfected; HEK-293T cells
T1 construct: gene DRD1; D1R with N-terminal signal peptide and Flag or Myc tag, fused to Renilla luciferase 8; GRK2 co-transfected; HEK-293T cells; with Beta-arrestin-2

[2] = molecular target: T2, D2R (D2SR), Go activation (Homo sapiens, UniProt P14416); details: partial agonist; HEK-293T cells
T2 construct: gene DRD2

D3R, Go activation = molecular target: T3, D3R, Go activation (Homo sapiens, UniProt P35462); assay: BRET Go activation (GαoA-Rluc / γ2-GFP10); format: cell-based; details: partial agonist; HEK-293T cells
T3 construct: gene DRD3; N-terminal signal peptide and Flag or Myc tag; co-transfected GαoA91-Rluc, Gγ2-GFP10 and untagged Gβ2; HEK-293T cells

[3] = molecular target: T4, D1R-Rluc with Golf-Venus (D1L_GolfV) (Homo sapiens, UniProt P21728); assay: BRET receptor-Gα engagement, D1R-Rluc / Golf-Venus; format: cell-based; details: antagonist against […] SKF81297; HEK-293T cells
T4 construct: gene DRD1; D1R with N-terminal signal peptide and Flag or Myc tag, fused to Renilla luciferase 8; Gαolf with inserted Venus; G protein chaperone Ric8B co-transfected, untagged Gβ2 and Gγ7 available; HEK-293T cells
T4 sequence (P21728 whole entry, the tested form may be a part): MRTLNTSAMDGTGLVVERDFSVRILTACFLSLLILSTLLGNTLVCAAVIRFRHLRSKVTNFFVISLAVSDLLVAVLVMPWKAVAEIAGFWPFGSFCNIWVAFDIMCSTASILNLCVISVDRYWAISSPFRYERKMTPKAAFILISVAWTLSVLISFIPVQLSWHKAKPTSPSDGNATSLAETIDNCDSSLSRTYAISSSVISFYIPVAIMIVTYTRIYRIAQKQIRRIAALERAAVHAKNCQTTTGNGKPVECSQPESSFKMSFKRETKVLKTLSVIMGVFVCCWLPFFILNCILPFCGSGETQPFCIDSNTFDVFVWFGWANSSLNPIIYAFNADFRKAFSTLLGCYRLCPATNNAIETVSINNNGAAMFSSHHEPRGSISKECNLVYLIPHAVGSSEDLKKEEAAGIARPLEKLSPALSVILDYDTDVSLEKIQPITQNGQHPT
T4 sequence (P38405 2-381 partner): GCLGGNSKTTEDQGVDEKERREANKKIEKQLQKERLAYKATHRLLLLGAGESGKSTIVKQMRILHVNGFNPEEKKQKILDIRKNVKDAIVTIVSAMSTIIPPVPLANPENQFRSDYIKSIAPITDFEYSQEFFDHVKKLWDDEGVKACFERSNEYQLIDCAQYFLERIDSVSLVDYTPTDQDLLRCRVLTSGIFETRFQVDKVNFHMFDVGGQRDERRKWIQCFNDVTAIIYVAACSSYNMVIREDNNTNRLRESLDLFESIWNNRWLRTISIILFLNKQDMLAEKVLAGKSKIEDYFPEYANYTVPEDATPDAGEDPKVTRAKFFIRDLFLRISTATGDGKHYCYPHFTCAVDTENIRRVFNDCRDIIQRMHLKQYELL

T1 sequence (P21728 whole entry, the tested form may be a part): as the sequence (P21728 whole entry, the tested form may be a part) above
T1 sequence (P32121 whole entry partner, the tested form may be a part): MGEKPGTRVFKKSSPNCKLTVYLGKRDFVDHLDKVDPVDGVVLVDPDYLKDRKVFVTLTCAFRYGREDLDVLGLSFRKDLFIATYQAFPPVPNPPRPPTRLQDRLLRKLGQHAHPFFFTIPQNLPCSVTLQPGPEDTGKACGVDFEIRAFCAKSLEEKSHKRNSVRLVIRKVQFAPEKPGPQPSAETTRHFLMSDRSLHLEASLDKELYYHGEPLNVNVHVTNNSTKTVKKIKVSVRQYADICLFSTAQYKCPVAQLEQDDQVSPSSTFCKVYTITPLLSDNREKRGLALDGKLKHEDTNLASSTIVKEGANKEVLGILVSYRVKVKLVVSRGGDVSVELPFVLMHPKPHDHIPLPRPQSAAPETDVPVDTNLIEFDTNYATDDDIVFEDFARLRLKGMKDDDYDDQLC
T3 sequence (P35462 whole entry): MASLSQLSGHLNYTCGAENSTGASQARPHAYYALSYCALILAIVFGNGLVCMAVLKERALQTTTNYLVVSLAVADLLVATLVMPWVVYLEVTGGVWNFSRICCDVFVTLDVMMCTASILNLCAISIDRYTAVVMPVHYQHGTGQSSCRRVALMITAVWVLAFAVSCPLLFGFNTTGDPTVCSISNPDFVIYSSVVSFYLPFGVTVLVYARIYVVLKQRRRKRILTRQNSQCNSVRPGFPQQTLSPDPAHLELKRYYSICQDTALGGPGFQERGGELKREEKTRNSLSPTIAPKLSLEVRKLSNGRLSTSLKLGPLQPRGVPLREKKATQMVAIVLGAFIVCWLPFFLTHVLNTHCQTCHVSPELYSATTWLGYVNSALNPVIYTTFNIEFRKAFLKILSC
T3 sequence (P09471 2-354 partner): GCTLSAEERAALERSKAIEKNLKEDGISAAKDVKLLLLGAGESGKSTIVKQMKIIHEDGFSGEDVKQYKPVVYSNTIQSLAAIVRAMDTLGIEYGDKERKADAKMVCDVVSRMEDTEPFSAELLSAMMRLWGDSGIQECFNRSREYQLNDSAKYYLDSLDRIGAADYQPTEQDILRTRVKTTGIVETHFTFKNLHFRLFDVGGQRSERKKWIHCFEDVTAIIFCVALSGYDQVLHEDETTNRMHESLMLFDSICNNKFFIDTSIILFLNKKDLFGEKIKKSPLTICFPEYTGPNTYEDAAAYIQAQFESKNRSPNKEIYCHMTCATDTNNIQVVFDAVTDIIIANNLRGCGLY
T2 sequence (P14416 1-414 isoform P14416-2): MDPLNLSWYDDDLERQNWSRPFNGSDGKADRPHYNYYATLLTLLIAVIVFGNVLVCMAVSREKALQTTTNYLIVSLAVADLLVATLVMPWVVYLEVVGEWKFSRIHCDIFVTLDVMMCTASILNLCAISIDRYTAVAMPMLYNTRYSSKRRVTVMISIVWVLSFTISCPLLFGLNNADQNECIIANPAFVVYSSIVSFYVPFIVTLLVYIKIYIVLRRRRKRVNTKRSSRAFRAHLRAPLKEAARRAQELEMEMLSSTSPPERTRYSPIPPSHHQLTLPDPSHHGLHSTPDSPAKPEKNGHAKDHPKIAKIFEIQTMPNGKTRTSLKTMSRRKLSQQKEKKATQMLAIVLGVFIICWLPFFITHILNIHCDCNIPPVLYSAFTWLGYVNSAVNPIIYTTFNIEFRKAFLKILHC
T2 sequence (P09471 2-354 partner): as the sequence (P09471 2-354 partner) above

Compound | EC50 [1] | other results
NC[C@@H]1O[C@H](C23CC4CC(CC(C4)C2)C3)Cc2c1ccc(O)c2O [A77636] | A77636 and SKF82958 maintained their high potencies and efficacies in the β-arrestin-2 recruitment assay | –
Oc1cc2c(cc1O)C1c3ccccc3CNC1CC2 (centres unmarked) [DHX] | DHX and NPA behaved similarly to Gs engagement in terms of efficacy and potency | EC50 [2]: less efficacious at D2R and D3R-mediated Go activation than at D1R-mediated Gs activation; EC50 (D3R, Go activation): less efficacious at D2R and D3R-mediated Go activation than at D1R-mediated Gs activation
CCCN1CCc2cccc3c2[C@H]1Cc1ccc(O)c(O)c1-3 [NPA] | DHX and NPA behaved similarly to Gs engagement in terms of efficacy and potency | –
CN1CCc2cc(Cl)c(O)cc2[C@@H](c2ccccc2)C1 [SCH23390] | – | IC50 [3]: Dose-response curves of BRET between D1R-Rluc and Golf-Venus (same color scheme)
Oc1cc2c(cc1O)C(c1ccccc1)CNCC2 (centres unmarked) [SKF38393] | SKF81297 and SKF38393 showed reduced and minimal β-arrestin-2 recruitment, respectively | –
C=CCN1CCc2c(cc(O)c(O)c2Cl)C(c2ccccc2)C1 (centres unmarked) [SKF82958] | A77636 and SKF82958 maintained their high potencies and efficacies in the β-arrestin-2 recruitment assay | –

Source: article PMC5799184, “Gs- versus Golf-dependent functional selectivity mediated by the dopamine D1 receptor” (Nature Communications, 2018)
